Measured values: ChEMBL document CHEMBL1681678, “Discovery of β-aminoacyl containing thiazolidine derivatives as potent and selective dipeptidyl peptidase IV inhibitors” (Bioorg Med Chem Lett, 2011)
One block for each compound: values may come before it.

Tests used:
Dipeptidyl peptidase 2 = Dipeptidyl peptidase 2 (Rattus norvegicus, UniProt Q9EPB1); experiment: Inhibition of rat DPP2 expressed in african green monkey COS7 cells after 60 mins by fluorescence plate reader; assay type: cell-based, COS-7
Aminopeptidase N = Aminopeptidase N (Homo sapiens, UniProt P15144); experiment: Inhibition of APN
Prolyl endopeptidase = molecular target: T1, Prolyl endopeptidase (Rattus norvegicus, UniProt O70196); experiment: Inhibition of POP in rat brain cortex; assay type: tissue-based
T1 sequence (O70196 whole entry): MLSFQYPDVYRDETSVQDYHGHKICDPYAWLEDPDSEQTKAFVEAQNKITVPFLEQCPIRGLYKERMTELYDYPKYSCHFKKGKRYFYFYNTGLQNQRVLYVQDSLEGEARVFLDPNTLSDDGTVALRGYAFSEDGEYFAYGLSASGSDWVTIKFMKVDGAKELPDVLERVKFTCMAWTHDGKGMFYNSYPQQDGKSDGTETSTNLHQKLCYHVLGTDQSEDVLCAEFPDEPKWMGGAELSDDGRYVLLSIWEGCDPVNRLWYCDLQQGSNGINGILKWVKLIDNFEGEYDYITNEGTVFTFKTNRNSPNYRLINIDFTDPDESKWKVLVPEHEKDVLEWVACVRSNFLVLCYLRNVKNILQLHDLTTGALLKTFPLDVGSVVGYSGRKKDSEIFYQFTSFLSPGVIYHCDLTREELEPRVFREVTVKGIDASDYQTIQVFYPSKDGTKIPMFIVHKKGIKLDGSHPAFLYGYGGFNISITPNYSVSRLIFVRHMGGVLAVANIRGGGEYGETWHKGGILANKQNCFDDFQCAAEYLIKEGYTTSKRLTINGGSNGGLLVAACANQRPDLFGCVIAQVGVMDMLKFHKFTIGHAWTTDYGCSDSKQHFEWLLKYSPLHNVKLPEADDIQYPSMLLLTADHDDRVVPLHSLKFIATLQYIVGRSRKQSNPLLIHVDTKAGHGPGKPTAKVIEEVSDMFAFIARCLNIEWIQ

[1] = Inhibition of trypsin
[2] = Inhibition of elastase
[3] = Metabolic stability in human liver microsomes assessed as compound remaining after 1 hr; assay type: ADME, Microsome; conditions: read-out: Stability
[4] = Metabolic stability in rat liver microsomes assessed as compound remaining after 1 hr; assay type: ADME, Microsome; conditions: read-out: Stability
[5] = Chemical stability of the compound in buffer solution assessed as compound remaining at pH 1 to 9 after 24 hrs; assay type: physicochemical; conditions: read-out: Stability
CYP3A4 = CYP3A4 (Homo sapiens, UniProt P08684); experiment: Inhibition of CYP3A4 at 10 uM; assay type: ADME
CYP1A2 = molecular target: T2, CYP1A2 (Homo sapiens, UniProt P05177); experiment: Inhibition of CYP1A2 at 10 uM; assay type: ADME
T2 sequence (P05177 whole entry): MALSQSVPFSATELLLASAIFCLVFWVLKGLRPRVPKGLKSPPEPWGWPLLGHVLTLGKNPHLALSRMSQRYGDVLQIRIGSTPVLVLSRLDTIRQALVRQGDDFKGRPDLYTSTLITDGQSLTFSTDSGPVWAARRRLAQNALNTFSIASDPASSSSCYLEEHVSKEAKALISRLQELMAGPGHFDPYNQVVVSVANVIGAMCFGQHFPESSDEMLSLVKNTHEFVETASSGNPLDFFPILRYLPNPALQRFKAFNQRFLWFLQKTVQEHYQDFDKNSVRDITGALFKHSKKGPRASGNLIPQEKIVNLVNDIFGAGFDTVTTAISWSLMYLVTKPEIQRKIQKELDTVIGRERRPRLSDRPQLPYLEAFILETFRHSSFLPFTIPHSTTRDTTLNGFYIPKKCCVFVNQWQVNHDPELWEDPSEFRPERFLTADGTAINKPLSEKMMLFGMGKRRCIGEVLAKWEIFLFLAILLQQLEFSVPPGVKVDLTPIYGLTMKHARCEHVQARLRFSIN

CYP2C9 = CYP2C9 (Homo sapiens, UniProt P11712); experiment: Inhibition of CYP2C9 at 10 uM; assay type: ADME
CYP2C19 = CYP2C19 (Homo sapiens, UniProt P33261); experiment: Inhibition of CYP2C19 at 10 uM; assay type: ADME
CYP2D6 = CYP2D6 (Homo sapiens, UniProt P10635); experiment: Inhibition of CYP2D6 at 10 uM; assay type: ADME
[6] = molecular target: Voltage-gated inwardly rectifying potassium channel KCNH2 (Homo sapiens, UniProt Q12809); experiment: Binding affinity to human ERG
HepG2 = experiment: Cytotoxicity against human HepG2 cells at 100 uM; assay type: cell-based; conditions: hepg2, 100 µM
[7] = Cytotoxicity against human WI38 cells at 100 uM; assay type: cell-based; conditions: wi-38, 100 µM
Rattus norvegicus [8] = experiment: Inhibition of DPP4 in CD rat plasma at 10 mg/kg, po after 12 hrs; assay type: functional
Canis familiaris [9] = experiment: Inhibition of DPP4 in Beagle dog plasma at 3 mg/kg, po after 12 hrs; assay type: functional; conditions: Canis lupus familiaris
Rattus norvegicus [10] = experiment: Inhibition of DPP4 in CD rat plasma at 10 mg/kg, po after 1 hr; assay type: functional
Rattus norvegicus [11] = experiment: Inhibition of DPP4 in CD rat plasma at 10 mg/kg, po after 8 hrs; assay type: functional
Canis familiaris [12] = experiment: Inhibition of DPP4 in Beagle dog plasma at 3 mg/kg, po after 1 hr; assay type: functional; conditions: Canis lupus familiaris
Canis familiaris [13] = experiment: Inhibition of DPP4 in Beagle dog plasma at 3 mg/kg, po after 4 hrs; assay type: functional; conditions: Canis lupus familiaris
Canis familiaris [14] = experiment: Inhibition of DPP4 in Beagle dog plasma at 3 mg/kg, po after 24 hrs; assay type: functional; conditions: Canis lupus familiaris

Chain of Voltage-gated inwardly rectifying potassium channel KCNH2 (Q12809 whole entry): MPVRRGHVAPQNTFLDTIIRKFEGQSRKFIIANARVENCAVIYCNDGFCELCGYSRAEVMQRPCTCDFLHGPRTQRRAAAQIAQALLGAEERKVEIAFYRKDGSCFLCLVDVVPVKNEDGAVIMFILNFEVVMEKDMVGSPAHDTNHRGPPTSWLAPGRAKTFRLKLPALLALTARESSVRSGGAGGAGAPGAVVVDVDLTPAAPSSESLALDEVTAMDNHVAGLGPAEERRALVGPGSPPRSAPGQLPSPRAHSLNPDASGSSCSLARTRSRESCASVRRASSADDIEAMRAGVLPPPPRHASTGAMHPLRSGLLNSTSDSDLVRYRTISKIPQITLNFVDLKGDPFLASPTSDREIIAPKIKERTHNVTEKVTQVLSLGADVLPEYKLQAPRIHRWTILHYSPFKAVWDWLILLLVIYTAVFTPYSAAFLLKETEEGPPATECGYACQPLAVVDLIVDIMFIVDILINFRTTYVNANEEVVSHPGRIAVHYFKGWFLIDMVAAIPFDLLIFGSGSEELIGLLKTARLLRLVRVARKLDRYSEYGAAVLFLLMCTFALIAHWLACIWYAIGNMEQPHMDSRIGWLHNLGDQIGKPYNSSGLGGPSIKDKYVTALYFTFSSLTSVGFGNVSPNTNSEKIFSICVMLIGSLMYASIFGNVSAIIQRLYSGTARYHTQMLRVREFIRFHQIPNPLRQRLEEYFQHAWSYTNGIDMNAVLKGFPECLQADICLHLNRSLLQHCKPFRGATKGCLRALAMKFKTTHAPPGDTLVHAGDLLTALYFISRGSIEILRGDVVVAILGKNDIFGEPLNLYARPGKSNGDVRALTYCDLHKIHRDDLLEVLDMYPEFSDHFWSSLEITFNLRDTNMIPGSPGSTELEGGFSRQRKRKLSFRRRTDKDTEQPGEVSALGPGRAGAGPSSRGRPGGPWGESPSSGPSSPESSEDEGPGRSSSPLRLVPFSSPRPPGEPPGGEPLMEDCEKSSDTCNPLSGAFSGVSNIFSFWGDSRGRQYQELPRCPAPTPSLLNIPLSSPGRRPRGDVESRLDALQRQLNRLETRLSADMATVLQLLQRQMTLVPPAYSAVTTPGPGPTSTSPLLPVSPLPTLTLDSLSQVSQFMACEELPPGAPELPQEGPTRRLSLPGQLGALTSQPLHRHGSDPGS
Chain of Dipeptidyl peptidase 2 (Q9EPB1 whole entry): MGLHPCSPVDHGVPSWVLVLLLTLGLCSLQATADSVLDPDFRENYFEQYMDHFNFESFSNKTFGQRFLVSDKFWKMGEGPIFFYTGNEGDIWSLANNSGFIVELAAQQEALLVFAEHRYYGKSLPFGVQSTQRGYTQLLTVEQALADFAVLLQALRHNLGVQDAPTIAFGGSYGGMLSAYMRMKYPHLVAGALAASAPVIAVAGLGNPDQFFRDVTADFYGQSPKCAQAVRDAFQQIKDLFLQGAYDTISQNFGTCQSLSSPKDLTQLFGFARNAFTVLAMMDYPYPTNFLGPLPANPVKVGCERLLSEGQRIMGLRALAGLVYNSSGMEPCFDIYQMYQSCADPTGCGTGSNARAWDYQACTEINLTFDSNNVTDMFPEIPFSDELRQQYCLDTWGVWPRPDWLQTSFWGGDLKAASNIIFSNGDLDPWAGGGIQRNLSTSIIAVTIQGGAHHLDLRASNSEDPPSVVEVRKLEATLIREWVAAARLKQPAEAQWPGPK
Chain of CYP3A4 (P08684 whole entry): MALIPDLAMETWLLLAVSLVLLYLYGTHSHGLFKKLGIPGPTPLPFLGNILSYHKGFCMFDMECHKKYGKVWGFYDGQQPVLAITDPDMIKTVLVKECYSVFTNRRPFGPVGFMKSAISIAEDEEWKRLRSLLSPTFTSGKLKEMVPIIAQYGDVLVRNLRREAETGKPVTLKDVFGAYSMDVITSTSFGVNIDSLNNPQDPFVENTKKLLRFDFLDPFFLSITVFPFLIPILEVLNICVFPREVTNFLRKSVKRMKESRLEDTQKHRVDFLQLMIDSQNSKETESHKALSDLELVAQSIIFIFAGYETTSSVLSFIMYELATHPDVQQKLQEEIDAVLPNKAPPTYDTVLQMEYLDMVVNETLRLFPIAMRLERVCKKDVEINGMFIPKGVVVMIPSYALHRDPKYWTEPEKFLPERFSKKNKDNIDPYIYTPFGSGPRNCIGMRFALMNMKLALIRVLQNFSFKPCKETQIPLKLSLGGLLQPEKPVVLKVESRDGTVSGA
Chain of CYP2D6 (P10635 whole entry): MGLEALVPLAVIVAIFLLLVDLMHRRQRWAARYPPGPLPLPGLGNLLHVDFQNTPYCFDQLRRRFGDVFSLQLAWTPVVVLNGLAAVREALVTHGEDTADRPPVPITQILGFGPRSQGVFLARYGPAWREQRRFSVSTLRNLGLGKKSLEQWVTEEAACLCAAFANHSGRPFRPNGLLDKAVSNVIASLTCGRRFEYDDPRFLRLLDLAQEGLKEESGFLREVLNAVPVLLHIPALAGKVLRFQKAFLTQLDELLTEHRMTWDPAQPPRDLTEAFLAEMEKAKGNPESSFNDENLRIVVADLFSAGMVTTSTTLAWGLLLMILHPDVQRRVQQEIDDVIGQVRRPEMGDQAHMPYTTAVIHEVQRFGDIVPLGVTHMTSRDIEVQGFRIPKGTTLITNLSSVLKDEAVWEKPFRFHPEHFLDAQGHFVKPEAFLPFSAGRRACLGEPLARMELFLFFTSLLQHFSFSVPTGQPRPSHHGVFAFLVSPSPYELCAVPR
Chain of Aminopeptidase N (P15144 whole entry): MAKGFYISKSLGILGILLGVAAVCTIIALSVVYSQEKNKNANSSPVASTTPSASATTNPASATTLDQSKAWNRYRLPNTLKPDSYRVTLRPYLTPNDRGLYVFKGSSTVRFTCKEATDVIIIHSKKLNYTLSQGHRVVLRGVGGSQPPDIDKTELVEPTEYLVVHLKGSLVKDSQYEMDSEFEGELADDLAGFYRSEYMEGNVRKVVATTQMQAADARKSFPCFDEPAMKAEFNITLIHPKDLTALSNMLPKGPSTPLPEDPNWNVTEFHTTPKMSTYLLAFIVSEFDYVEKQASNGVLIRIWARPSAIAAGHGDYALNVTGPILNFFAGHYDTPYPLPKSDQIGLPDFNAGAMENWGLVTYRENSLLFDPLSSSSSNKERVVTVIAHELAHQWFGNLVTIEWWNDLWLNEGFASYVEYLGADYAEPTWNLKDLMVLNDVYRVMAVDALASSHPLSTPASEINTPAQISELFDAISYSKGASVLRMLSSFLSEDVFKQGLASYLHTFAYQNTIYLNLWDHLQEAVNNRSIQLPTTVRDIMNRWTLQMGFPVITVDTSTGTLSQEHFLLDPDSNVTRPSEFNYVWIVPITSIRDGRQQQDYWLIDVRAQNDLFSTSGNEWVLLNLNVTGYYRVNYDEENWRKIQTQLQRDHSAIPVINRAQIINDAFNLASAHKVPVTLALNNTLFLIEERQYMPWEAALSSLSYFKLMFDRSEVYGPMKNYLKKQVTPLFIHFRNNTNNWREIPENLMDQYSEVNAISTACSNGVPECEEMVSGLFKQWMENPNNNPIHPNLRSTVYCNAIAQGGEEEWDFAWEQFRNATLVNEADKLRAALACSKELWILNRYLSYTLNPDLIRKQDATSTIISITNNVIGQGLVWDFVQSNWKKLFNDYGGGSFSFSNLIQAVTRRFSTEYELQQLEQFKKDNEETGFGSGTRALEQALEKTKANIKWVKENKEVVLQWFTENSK
Chain of CYP2C9 (P11712 whole entry): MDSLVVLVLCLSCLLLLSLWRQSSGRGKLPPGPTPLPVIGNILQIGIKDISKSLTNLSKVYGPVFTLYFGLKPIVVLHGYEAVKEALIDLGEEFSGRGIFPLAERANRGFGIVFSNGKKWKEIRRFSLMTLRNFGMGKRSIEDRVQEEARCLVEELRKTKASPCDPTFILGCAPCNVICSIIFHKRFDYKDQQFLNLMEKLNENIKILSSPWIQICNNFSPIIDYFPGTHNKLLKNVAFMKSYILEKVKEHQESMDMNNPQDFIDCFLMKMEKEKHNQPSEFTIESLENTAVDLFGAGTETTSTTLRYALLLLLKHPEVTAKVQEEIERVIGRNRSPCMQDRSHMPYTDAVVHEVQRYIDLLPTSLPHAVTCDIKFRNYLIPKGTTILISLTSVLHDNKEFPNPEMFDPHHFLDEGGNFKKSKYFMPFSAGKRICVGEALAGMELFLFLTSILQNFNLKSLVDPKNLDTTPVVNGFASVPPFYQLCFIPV
Chain of CYP2C19 (P33261 whole entry): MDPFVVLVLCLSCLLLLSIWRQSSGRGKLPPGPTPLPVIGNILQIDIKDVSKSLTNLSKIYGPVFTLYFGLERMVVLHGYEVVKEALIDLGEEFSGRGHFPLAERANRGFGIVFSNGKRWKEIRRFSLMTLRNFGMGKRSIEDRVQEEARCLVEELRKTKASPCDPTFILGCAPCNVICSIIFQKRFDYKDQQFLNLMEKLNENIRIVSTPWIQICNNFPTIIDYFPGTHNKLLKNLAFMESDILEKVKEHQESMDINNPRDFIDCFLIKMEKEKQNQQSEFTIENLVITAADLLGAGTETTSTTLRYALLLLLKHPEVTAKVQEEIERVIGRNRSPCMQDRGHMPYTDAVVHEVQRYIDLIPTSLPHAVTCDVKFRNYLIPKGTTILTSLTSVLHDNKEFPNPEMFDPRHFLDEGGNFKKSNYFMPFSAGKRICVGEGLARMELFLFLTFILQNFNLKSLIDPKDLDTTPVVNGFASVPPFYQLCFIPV

IC50 (Dipeptidyl peptidase 2): > 100 µM | IC50 (Aminopeptidase N): > 100 µM | IC50 (Prolyl endopeptidase): > 100 µM | IC50 [1]: > 100 µM | IC50 [2]: > 100 µM | remaining at 1 h [3]: > 90% | remaining at 1 h [4]: > 90% | remaining at 24 h [5]: > 90% | inhibition at 10 µM (CYP3A4): 3.5% | inhibition at 10 µM (CYP1A2): 2.9% | inhibition at 10 µM (CYP2C9): 26.8% | inhibition at 10 µM (CYP2C19): 46.9% | inhibition at 10 µM (CYP2D6): 12.2%
Structure (SMILES): CC(C)[C@@H](Nc1ccc(CNC(=O)[C@@H]2SCCN2C(=O)C[C@H](N)Cc2cc(F)c(F)cc2F)cc1)C(=O)O.Cl
EC50 [6]: 408 µM | Activity (HepG2): Non-toxic | Activity [7]: Non-toxic

Structure (SMILES): CCOC(=O)[C@H](Nc1ccc(CNC(=O)[C@@H]2SCCN2C(=O)C[C@H](N)Cc2cc(F)c(F)cc2F)cc1)C(C)C
inhibition in vivo at 10 mg/kg (Rattus norvegicus [8]): 87% | inhibition in vivo at 3 mg/kg (Canis familiaris [9]): 77% | inhibition in vivo at 10 mg/kg (Rattus norvegicus [10]): 95% | inhibition in vivo at 10 mg/kg (Rattus norvegicus [11]): 92% | inhibition in vivo at 3 mg/kg (Canis familiaris [12]): 94% | inhibition in vivo at 3 mg/kg (Canis familiaris [13]): 93% | inhibition in vivo at 3 mg/kg (Canis familiaris [14]): 44%
